# Source: patent publication US20250340551A1, “SMALL MOLECULE MODULATORS OF STAT6” (Gilead Sciences, Inc., priority 2024, published 2025)
# Target: human STAT6 (Homo sapiens (Human), UniProt P42226)
# Test: Surface plasmon resonance assay (Biacore 8K, binding to immobilized STAT6)
# Conditions: human STAT6 aa122-658, N-terminal His-tag, CM5 chip, 25° C.; geometric mean; read-out: STAT6 SPR Kd
# Procedure: Biacore instruments from the 8K-series (Cytiva) were used, and measurements were performed at 25° C. Human STAT6 (truncated, aa122-658, with N-terminal His-tag, expressed in insect cells) was immobilized in the active flow cells on a CM5 chip using amine-coupling (default settings) at 10 μg/ml in 10 mM acetate buffer pH 5.5, at a contact time of 120-420 sec. and a flow rate of 10 μl/min. Reference flow cells were deactivated using blank immobilization. PBS-P+ (Cytiva) supplemented with 2% DMSO was used as running buffer, and solvent correction was applied. Compounds were tested by multi-cycle kinetics injections using a contact time of 60 sec., dissociation time of up to 300 sec., and a flow rate of 30 μl/min.
# Solvent-corrected, reference-subtracted and blank-corrected data was processed and binding isotherms were fitted according to a single report point from each sensorgram (Standard: Late binding (5 sec. before injection end); alternative: Earlier report point according to binding profile). Data fitting was done both with unfixed Rmax and with Rmax fixed to the theoretical value* assuming 1:1 binding to allow processing of data from both weak and strong binders as well as to evaluate binding stoichiometry.
# Positive controls were run at the beginning, during, and at the end of the screen to evaluate surface activity.
# Chain of human STAT6 (P42226 122-658): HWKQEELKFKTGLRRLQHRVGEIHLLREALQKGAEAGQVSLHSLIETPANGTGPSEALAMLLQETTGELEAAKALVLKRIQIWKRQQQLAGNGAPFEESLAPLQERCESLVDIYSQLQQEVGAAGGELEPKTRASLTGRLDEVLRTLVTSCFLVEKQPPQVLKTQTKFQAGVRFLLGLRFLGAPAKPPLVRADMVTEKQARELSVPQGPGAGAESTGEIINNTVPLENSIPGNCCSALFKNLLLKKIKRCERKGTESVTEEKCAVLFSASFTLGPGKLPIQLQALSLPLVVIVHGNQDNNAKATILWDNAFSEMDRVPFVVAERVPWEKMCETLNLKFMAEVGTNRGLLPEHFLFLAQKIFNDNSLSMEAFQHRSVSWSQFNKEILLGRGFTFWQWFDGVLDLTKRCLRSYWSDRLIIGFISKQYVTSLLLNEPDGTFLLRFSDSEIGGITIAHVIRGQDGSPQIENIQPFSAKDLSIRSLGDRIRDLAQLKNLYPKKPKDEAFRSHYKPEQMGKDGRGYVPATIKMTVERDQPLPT
row,Compound,Kd [nM]
1,"C[C@@H](c1cc2c(-c3ccc(N)nc3C#N)ccnc2n1C)N1CC=C(c2ccc(C(=O)N(C)C)cc2)CC1 [Example 1af21, (S)-4-(1-(1-(4-(6-amino-2-cyanopyridin-3-yl)-1-methyl-1H-pyrrolo[2,3-b]pyridin-2-yl)ethyl)-1,2,3,6-tetrahydropyridin-4-yl)-N,N-dimethylbenzamide]",8660
2,"C[C@H](c1cc2c(-c3ccc(N)nc3C#N)ccnc2n1C)N1CC=C(c2ccc(C(=O)N(C)C)cc2)CC1 [Example 1af23, (R)-4-(1-(1-(4-(6-amino-2-cyanopyridin-3-yl)-1-methyl-1H-pyrrolo[2,3-b]pyridin-2-yl)ethyl)-1,2,3,6-tetrahydropyridin-4-yl)-N,N-dimethylbenzamide]",45.2
3,"[2H]C([2H])([2H])N(C(=O)c1ccc(C2=CCN([C@@H](C)c3cc4c(-c5ccc(N)nc5C#N)ccnc4n3C)CC2)c(C)c1)C([2H])([2H])[2H] [Example 1af25, (S)-4-(1-(1-(4-(6-amino-2-cyanopyridin-3-yl)-1-methyl-1H-pyrrolo[2,3-b]pyridin-2-yl)ethyl)-1,2,3,6-tetrahydropyridin-4-yl)-3-methyl-N,N-bis(methyl-d3)benzamide]",361
4,"Cc1cc(C(=O)N(C)C)ccc1C1CCN([C@H](C)c2cc3c(-c4ccc(N)nc4C#N)ccnc3n2C)CC1 [Example 1af28, (R)-4-(1-(1-(4-(6-amino-2-cyanopyridin-3-yl)-1-methyl-1H-pyrrolo[2,3-b]pyridin-2-yl)ethyl)piperidin-4-yl)-N,N,3-trimethylbenzamide]",5310
5,"[2H]C([2H])([2H])N(C(=O)c1ccc(C2CCN([C@@H](C)c3cc4c(-c5ccc(N)nc5C#N)ccnc4n3C)CC2)cc1)C([2H])([2H])[2H] [Example 1af29, (S)-4-(1-(1-(4-(6-Amino-2-cyanopyridin-3-yl)-1-methyl-1H-pyrrolo[2,3-b]pyridin-2-yl)ethyl)-piperidin-4-yl)-N,N-bis(methyl-d3)benzamide]",645
6,"[2H]C([2H])([2H])N(C(=O)c1ccc(C2=CCN([C@@H](C)c3cc4c(-c5ccc(N)cn5)ccnc4n3C)CC2)c(C)c1)C([2H])([2H])[2H] [Example 1af31, (S)-4-(1-(1-(4-(5-aminopyridin-2-yl)-1-methyl-1H-pyrrolo[2,3-b]pyridin-2-yl)ethyl)-1,2,3,6-tetrahydropyridin-4-yl)-3-methyl-N,N-bis(methyl-d3)benzamide]",169
7,"Cc1cc(C(=O)N(C)C)ccc1C1=CCN([C@@H](C)c2cc3c(-c4ccc(N)cn4)ccnc3n2C)CC1 [Example 1af32, (S)-4-(1-(1-(4-(5-Aminopyridin-2-yl)-1-methyl-1H-pyrrolo[2,3-b]pyridin-2-yl)ethyl)-1,2,3,6-tetrahydropyridin-4-yl)-N,N,3-trimethylbenzamide]",286
8,"[2H]C([2H])([2H])N(C(=O)c1ccc(C2=CCN([C@H](C)c3cc4c(-c5ccc(N)cn5)ccnc4n3C)CC2)c(C)c1)C([2H])([2H])[2H] [Example 1af33, (R)-4-(1-(1-(4-(5-aminopyridin-2-yl)-1-methyl-1H-pyrrolo[2,3-b]pyridin-2-yl)ethyl)-1,2,3,6-tetrahydropyridin-4-yl)-3-methyl-N,N-bis(methyl-d3)benzamide]",15.4
9,"[2H]C([2H])([2H])N(C(=O)c1ccc(C2CCN([C@@H](C)c3cc4c(-c5ccc(N)cn5)ccnc4n3C)CC2)cc1)C([2H])([2H])[2H] [Example 1af35, (S)-4-(1-(1-(4-(5-Aminopyridin-2-yl)-1-methyl-1H-pyrrolo[2,3-b]pyridin-2-yl)-ethyl)piperidin-4-yl)-N,N-bis(methyl-d3)benzamide]",605
10,"[2H]C([2H])([2H])N(C(=O)c1ccc(C2=CCN([C@@H](C)c3cc4c(-c5ccc(N)cn5)ccnc4n3C)CC2)cc1)C([2H])([2H])[2H] [Example 1af43, (S)-4-(1-(1-(4-(5-Aminopyridin-2-yl)-1-methyl-1H-pyrrolo[2,3-b]pyridin-2-yl)ethyl)-1,2,3,6-tetrahydropyridin-4-yl)-N,N-bis(methyl-d3)benzamide]",2950
11,"CNC(=O)c1ccc(-c2ccnc3c2cc(CN2CCC(c4ccc(C(=O)N(C)C)cc4)CC2)n3C)cc1 [Example 1j7, 4-[2-[[4-[4-(Dimethylcarbamoyl)phenyl]-1-piperidyl]methyl]-1-methyl-pyrrolo[2,3-b]pyridin-4-yl]-N-methyl-benzamide]",3450
12,"COC(=O)c1cc(-c2ccnc3c2cc(CN2CCC(c4ccc(C(=O)N(C)C)cc4)CC2)n3C)cnc1N [Example 1k10, Methyl 2-amino-5-[2-[[4-[4-(dimethylcarbamoyl)phenyl]-1-piperidyl]methyl]-1-methyl-pyrrolo[2,3-b]pyridin-4-yl]pyridine-3-carboxylate]",2630
13,"CN(C)C(=O)c1ccc(C2CCN(Cc3cc4c(-c5cnc(N)cc5F)ccnc4n3C)CC2)cc1 [Example 1k15, 4-[1-[[4-(6-Amino-4-fluoro-3-pyridyl)-1-methyl-pyrrolo[2,3-b]pyridin-2-yl]methyl]-4-piperidyl]-N,N-dimethyl-benzamide]",38.9
14,"[2H]C([2H])([2H])N(C(=O)c1ccc(C2CCN(Cc3cc4c(-c5cnc(N)cc5F)ccnc4n3C)CC2)cc1)C([2H])([2H])[2H] [Example 1k16, 4-[1-[[4-(6-Amino-4-fluoro-3-pyridyl)-1-methyl-pyrrolo[2,3-b]pyridin-2-yl]methyl]-4-piperidyl]-N,N-bis(trideuteriomethyl)benzamide]",22.6

# Results, then the compound that gave them:
row,Kd [nM],Compound
1,2360,"C[C@@H](c1cc2c(-c3ccc(N)cn3)ccnc2n1C)N1CC=C(c2ccc(C(=O)N(C)C)cc2)CC1 [Example 1af19, (S)-4-(1-(1-(4-(5-Aminopyridin-2-yl)-1-methyl-1H-pyrrolo[2,3-b]pyridin-2-yl)ethyl)-1,2,3,6-tetrahydropyridin-4-yl)-N,N-dimethylbenzamide]"
2,66.5,"Cc1cc(C(=O)N(C)C)ccc1C1CCN([C@@H](C)c2cc3c(-c4ccc(N)nc4C#N)ccnc3n2C)CC1 [Example 1af27, (S)-4-(1-(1-(4-(6-Amino-2-cyanopyridin-3-yl)-1-methyl-1H-pyrrolo[2,3-b]pyridin-2-yl)ethyl)piperidin-4-yl)-N,N,3-trimethylbenzamide]"
3,24.1,"[2H]C([2H])([2H])N(C(=O)c1ccc(C2CCN([C@H](C)c3cc4c(-c5ccc(N)nc5C#N)ccnc4n3C)CC2)cc1)C([2H])([2H])[2H] [Example 1af30, (R)-4-(1-(1-(4-(6-amino-2-cyanopyridin-3-yl)-1-methyl-1H-pyrrolo[2,3-b]pyridin-2-yl)ethyl)piperidin-4-yl)-N,N-bis(methyl-d3)benzamide]"
4,18.6,"Cc1cc(C(=O)N(C)C)ccc1C1=CCN([C@H](C)c2cc3c(-c4ccc(N)cn4)ccnc3n2C)CC1 [Example 1af34, (R)-4-(1-(1-(4-(5-aminopyridin-2-yl)-1-methyl-1H-pyrrolo[2,3-b]pyridin-2-yl)ethyl)-1,2,3,6-tetrahydropyridin-4-yl)-N,N,3-trimethylbenzamide]"
5,5270,"[2H]C([2H])([2H])N(C(=O)c1ccc(C2CCN([C@H](C)c3cc4c(-c5ccc(N)nc5C#N)ccnc4n3C)CC2)c(C)c1)C([2H])([2H])[2H] [Example 1af38, (R)-4-(1-(1-(4-(6-amino-2-cyanopyridin-3-yl)-1-methyl-1H-pyrrolo[2,3-b]pyridin-2-yl)ethyl)-piperidin-4-yl)-3-methyl-N,N-bis(methyl-d3)benzamide]"
6,3300,"[2H]C([2H])([2H])N(C(=O)c1ccc(C2CCN([C@@H](C)c3cc4c(-c5ccc(N)cn5)ccnc4n3C)CC2)c(C)c1)C([2H])([2H])[2H] [Example 1af41, (S)-4-(1-(1-(4-(5-Aminopyridin-2-yl)-1-methyl-1H-pyrrolo[2,3-b]pyridin-2-yl)ethyl)-piperidin-4-yl)-3-methyl-N,N-bis(methyl-d3)benzamide]"
7,37200,"CNC(=O)c1ccc(-c2ccnc3c2cc(CN2CCN(c4ccc(C(=O)N(C)C)cc4)CC2)n3C)cc1 [Example 1j6, 4-[2-[[4-[4-(Dimethylcarbamoyl)phenyl]piperazin-1-yl]methyl]-1-methyl-pyrrolo[2,3-b]pyridin-4-yl]-N-methyl-benzamide]"
8,12.8,"CN(C)C(=O)c1ccc(C2CCN(Cc3cc4c(-c5ccc(N)c(C(=O)C(=O)O)c5)ccnc4n3C)CC2)cc1 [Example 1j13, 2-(2-Amino-5-(2-((4-(4-(dimethylcarbamoyl)phenyl)piperidin-1-yl)methyl)-1-methyl-1H-pyrrolo[2,3-b]pyridin-4-yl)phenyl)-2-oxoacetic acid]"
9,64,"CC(=O)Nc1ccc(-c2ccnc3c2cc(CN2CCC(c4ccc(C(=O)N(C)C)cc4)CC2)n3C)cn1 [Example 1k2, 4-[1-[[4-(6-Acetamido-3-pyridyl)-1-methyl-pyrrolo[2,3-b]pyridin-2-yl]methyl]-4-piperidyl]-N,N-dimethyl-benzamide]"
10,457,"CN(C)C(=O)c1ccc(C2CCN(Cc3cc4c(-c5cnc(N)cn5)ccnc4n3C)CC2)cc1 [Example 1k8, 4-[1-[[4-(5-Aminopyrazin-2-yl)-1-methyl-pyrrolo[2,3-b]pyridin-2-yl]methyl]-4-piperidyl]-N,N-dimethyl-benzamide]"
11,144,"CN(C)C(=O)c1ccc(C2CCN(Cc3cc4c(-c5cnc(N)c(C(=O)O)c5)ccnc4n3C)CC2)cc1 [Example 1k9, 2-Amino-5-[2-[[4-[4-(dimethylcarbamoyl)phenyl]-1-piperidyl]methyl]-1-methyl-pyrrolo[2,3-b]pyridin-4-yl]pyridine-3-carboxylic acid]"
